How the values were obtained:
Type in all cases: cell-based
[1] = target: KDR (phospho-KDR, VEGF165-stimulated HUVEC cells) (Homo sapiens (Human), UniProt P35968); assay: KDR autophosphorylation ELISA in HUVEC cells (Example G); settings: cellular activity; KDR autophosphorylation ELISA in HUVEC cells
Method in brief: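 HUVEC cells, serum-starved 24 h, were treated 1 h with an 8-point compound dilution (0.3% DMSO) and then stimulated with 100 ng/mL VEGF165 for 5 min. Phospho-KDR in lysates was quantified by sandwich ELISA against a phospho-KDR standard. IC50 from a 4-parameter logistic fit, normalised between stimulated DMSO and unstimulated controls.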

[2] = target: Mer (phospho-Mer, MERTK-transfected 293A cells) (Homo sapiens (Human), UniProt Q12866); assay: Mer autophosphorylation ELISA in transient transfected 293A cells (Example H); settings: cellular activity; Mer autophosphorylation ELISA in transient transfected 293A cells
Method in brief: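 Inhibition of cellular Mer autophosphorylation is determined in 293A cells transiently expressing human MERTK after 1 h compound exposure (8 concentrations, serum-free, 0.3% DMSO). Phospho-Mer in clarified lysates is measured by ELISA, with DMSO and reference-inhibitor wells defining the 100% and 0% activity limits.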

[3] = target: AXL (phospho-AXL, Gas6-stimulated A-172 glioblastoma cells) (Homo sapiens (Human), UniProt P30530); assay: AXL autophosphorylation ELISA in A-172 cells (Example E); settings: cellular activity; AXL autophosphorylation ELISA in A-172 cells; read-out: Axl IC50
Method in brief: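 Phospho-AXL in lysates was quantified by ELISA, normalised to DMSO (100%) and reference inhibitor (0%) controls. IC50 by 4-parameter logistic fit.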

[4] = target: Met (phospho-Met, HGF-stimulated PC-3 prostate cancer cells) (Homo sapiens (Human), UniProt P08581); assay: Met autophosphorylation ELISA in PC-3 cells (Example F); settings: cellular activity; Met autophosphorylation ELISA in PC-3 cells; read-out: c-Met IC50
Method in brief: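 Compounds were tested on HGF-stimulated PC-3 cells. After 24 h culture and 3 h serum starvation, cells got compound for 1 h and 100 ng/mL HGF for 10 min, and Met tyrosine phosphorylation was measured by ELISA.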

KDR (phospho-KDR, VEGF165-stimulated HUVEC cells), sequence (P35968 20-1356): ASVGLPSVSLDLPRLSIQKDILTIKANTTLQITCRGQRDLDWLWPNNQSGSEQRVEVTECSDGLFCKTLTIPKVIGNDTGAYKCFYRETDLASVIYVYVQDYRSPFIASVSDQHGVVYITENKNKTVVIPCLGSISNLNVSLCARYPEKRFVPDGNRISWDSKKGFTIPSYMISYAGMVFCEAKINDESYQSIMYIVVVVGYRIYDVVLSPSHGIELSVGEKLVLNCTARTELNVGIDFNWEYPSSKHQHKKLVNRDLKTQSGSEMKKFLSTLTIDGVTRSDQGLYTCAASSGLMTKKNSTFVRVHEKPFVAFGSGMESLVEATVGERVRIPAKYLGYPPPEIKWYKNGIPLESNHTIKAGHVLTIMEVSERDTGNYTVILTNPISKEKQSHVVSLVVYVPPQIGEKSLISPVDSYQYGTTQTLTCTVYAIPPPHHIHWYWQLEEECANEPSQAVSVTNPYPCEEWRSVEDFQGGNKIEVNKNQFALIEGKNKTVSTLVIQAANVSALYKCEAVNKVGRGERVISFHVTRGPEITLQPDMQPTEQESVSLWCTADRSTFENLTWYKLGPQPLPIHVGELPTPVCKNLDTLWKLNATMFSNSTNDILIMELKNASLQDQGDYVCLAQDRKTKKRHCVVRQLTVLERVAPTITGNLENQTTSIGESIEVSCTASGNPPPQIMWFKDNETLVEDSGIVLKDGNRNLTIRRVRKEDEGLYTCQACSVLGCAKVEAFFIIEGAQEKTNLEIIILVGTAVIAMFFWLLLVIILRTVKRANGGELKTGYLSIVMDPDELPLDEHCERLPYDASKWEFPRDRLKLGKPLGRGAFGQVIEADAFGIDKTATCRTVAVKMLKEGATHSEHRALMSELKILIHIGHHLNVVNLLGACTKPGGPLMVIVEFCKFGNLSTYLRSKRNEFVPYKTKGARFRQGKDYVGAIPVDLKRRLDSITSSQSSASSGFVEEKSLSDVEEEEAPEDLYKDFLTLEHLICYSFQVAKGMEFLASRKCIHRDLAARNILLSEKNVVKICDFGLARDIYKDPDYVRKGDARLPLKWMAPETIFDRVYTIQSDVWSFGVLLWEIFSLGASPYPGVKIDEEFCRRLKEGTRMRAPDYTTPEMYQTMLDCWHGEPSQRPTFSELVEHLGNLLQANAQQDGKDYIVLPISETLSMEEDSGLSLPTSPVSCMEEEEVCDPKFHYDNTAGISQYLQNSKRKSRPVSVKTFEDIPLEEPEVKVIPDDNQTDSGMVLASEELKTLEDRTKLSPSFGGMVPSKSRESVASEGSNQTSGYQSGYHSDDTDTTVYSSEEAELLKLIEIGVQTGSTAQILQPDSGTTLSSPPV
AXL (phospho-AXL, Gas6-stimulated A-172 glioblastoma cells), sequence (P30530 26-894): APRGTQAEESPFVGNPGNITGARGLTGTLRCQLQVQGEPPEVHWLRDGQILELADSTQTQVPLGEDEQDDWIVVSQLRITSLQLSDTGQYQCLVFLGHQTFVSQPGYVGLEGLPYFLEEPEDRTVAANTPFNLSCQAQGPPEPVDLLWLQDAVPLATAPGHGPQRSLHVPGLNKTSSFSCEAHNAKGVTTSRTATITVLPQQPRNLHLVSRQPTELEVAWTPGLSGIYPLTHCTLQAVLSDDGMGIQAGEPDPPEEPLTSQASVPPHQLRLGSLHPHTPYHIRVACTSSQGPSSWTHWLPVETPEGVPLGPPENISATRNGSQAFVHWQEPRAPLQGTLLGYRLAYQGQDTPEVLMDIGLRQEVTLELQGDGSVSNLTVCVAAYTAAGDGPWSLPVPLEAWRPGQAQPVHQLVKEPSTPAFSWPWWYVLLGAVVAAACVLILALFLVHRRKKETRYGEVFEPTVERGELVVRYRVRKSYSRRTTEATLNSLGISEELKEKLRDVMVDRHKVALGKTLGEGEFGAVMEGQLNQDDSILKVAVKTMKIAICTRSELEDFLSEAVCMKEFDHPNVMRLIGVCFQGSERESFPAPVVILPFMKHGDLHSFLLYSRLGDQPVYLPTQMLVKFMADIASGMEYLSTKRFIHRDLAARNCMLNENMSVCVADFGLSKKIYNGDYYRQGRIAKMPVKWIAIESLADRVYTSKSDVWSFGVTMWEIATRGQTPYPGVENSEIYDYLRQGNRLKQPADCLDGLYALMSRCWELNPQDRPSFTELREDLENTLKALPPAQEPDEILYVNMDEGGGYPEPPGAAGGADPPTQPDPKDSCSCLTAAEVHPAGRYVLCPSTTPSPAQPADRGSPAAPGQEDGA
Mer (phospho-Mer, MERTK-transfected 293A cells), sequence (Q12866 21-999): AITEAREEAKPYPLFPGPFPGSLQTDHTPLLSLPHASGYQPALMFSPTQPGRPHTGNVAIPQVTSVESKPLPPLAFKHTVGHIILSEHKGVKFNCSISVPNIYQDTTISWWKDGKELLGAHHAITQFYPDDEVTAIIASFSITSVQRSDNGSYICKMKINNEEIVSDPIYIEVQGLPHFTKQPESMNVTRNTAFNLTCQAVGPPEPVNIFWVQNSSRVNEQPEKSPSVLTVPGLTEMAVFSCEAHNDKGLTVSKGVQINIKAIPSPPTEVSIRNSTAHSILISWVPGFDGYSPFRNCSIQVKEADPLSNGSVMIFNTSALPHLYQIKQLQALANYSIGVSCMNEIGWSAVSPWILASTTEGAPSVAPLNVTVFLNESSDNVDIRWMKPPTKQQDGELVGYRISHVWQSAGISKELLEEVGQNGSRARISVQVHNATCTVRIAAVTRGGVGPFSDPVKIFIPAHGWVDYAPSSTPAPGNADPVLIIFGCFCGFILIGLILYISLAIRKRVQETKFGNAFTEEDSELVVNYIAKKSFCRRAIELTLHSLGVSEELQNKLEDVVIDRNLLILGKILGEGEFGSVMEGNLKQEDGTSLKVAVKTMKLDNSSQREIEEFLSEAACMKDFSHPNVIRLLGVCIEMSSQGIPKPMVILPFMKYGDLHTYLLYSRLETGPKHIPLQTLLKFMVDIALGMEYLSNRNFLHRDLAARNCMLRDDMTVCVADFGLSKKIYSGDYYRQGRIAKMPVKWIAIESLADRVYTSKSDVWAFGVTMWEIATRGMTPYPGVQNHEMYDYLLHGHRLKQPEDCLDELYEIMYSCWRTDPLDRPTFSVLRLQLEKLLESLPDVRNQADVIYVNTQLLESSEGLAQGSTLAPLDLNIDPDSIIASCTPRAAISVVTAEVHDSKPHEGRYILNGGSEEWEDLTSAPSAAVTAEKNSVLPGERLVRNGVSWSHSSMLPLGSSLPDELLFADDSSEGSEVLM
Met (phospho-Met, HGF-stimulated PC-3 prostate cancer cells), sequence (P08581 25-1390): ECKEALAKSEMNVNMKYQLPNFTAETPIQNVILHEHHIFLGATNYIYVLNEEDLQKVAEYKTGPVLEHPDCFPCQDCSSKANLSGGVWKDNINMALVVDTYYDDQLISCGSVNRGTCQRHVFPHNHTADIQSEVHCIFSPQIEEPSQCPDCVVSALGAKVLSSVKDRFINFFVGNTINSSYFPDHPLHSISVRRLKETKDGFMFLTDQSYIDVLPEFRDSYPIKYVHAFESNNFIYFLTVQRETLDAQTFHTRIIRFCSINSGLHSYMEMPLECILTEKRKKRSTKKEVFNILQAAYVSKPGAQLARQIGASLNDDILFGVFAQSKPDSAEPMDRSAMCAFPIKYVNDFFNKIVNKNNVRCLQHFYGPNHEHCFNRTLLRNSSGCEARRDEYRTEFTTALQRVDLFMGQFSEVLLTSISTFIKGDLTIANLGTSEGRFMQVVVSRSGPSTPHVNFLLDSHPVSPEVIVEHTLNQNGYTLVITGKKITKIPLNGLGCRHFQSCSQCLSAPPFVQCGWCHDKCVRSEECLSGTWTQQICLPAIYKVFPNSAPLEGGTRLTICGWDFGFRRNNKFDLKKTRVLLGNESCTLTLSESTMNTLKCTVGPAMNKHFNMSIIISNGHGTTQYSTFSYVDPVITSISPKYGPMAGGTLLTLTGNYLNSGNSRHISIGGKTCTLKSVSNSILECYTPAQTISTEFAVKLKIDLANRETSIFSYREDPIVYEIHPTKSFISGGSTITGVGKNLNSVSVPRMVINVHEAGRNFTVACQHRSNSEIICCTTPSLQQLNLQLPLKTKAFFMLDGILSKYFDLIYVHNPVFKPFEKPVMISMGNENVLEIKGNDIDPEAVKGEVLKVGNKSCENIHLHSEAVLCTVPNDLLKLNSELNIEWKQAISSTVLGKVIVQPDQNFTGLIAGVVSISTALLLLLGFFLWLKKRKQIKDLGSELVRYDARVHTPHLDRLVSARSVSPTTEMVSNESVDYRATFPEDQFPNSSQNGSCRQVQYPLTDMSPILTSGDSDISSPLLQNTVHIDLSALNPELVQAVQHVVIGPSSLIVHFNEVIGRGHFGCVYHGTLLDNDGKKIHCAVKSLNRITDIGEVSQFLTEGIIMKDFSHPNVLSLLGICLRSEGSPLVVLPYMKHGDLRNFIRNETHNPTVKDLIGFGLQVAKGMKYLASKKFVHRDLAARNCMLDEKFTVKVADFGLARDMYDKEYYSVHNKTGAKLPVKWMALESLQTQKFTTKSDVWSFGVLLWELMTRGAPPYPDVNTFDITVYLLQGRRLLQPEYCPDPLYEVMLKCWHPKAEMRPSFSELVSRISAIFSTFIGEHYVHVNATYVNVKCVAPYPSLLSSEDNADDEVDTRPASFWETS

`COc1cc2c(Oc3ccc(NC(=O)c4ncc(C)n(-c5ccc(F)cc5)c4=O)cc3F)ccnc2cn1` [Compound 500, N-[3-fluoro-4-[(6-methoxy-1,7-naphthyridin-4-yl)oxy]phenyl]-4-(4-fluorophenyl)-5-methyl-3-oxopyrazine-2-carboxamide] showed an IC50 [1] of 100 to 300 nM, an IC50 [2] of less than 100 nM and an IC50 [3] of less than 100 nM. It also gave an IC50 [4] of less than 100 nM.

For `COCc1nc(C)c(-c2ccc(F)cc2)c(O)c1C(=O)Nc1ccc(Oc2ccnc3cnc(OC)cc23)c(F)c1` [Compound 501, N-[3-Fluoro-4-[(6-methoxy-1,7-naphthyridin-4-yl)oxy]phenyl]-5-(4-fluorophenyl)-4-hydroxy-2-(methoxymethyl)-6-methylpyridine-3-carboxamide], the IC50 [1] was less than 100 nM, the IC50 [2] was less than 100 nM and the IC50 [3] was less than 100 nM. The IC50 [4] was less than 100 nM.

For `COCc1nc(C)c(-c2ccc(F)cc2)c(O)c1C(=O)Nc1ccc(Oc2ccnc3cnc(Cl)cc23)c(F)c1` [Compound 502, N-[4-[(6-Chloro-1,7-naphthyridin-4-yl)oxy]-3-fluorophenyl]-5-(4-fluorophenyl)-4-hydroxy-2-(methoxymethyl)-6-methylpyridine-3-carboxamide], the IC50 [1] was less than 100 nM, the IC50 [2] was less than 100 nM and the IC50 [3] was less than 100 nM. It also gave an IC50 [4] of less than 100 nM.

With `COc1cc2nccc(Oc3ccc(NC(=O)c4nnc(C)c(-c5ccc(F)cc5)c4OC)cc3F)c2nc1OC` [Compound 531, N-[4-[(6,7-dimethoxy-1,5-naphthyridin-4-yl)oxy]-3-fluorophenyl]-5-(4-fluorophenyl)-4-methoxy-6-methylpyridazine-3-carboxamide] the IC50 [1] was less than 100 nM, the IC50 [2] was less than 100 nM and the IC50 [3] was less than 100 nM. It also gave an IC50 [4] of less than 100 nM.

Work on `COCc1cnn(-c2ccc(F)cc2)c(=O)c1C(=O)Nc1ccc(Oc2ccnc3cc(OC)cnc23)c(F)c1` [Compound 532, N-[3-fluoro-4-[(7-methoxy-1,5-naphthyridin-4-yl)oxy]phenyl]-2-(4-fluorophenyl)-5-(methoxymethyl)-3-oxopyridazine-4-carboxamide] yielded an IC50 [1] greater than 300 nM, an IC50 [2] of less than 100 nM and an IC50 [3] of less than 100 nM. The IC50 [4] was less than 100 nM.

`COCc1cnn(-c2ccc(F)cc2)c(=O)c1C(=O)Nc1ccc(Oc2ccnc3cc(OC)c(OC)nc23)c(F)c1` [Compound 533, N-[4-[(6,7-dimethoxy-1,5-naphthyridin-4-yl)oxy]-3-fluorophenyl]-2-(4-fluorophenyl)-5-(methoxymethyl)-3-oxopyridazine-4-carboxamide] showed an IC50 [1] of less than 100 nM, an IC50 [2] of less than 100 nM and an IC50 [3] of less than 100 nM. For the same molecule, the IC50 [4] was less than 100 nM.

`COc1cc2nccc(Oc3ccc(NC(=O)c4nnc(C)c(-c5ccc(F)cc5)c4OC)cc3)c2nc1OC` [Compound 534, N-[4-[(6,7-dimethoxy-1,5-naphthyridin-4-yl)oxy]phenyl]-5-(4-fluorophenyl)-4-methoxy-6-methylpyridazine-3-carboxamide] gave an IC50 [1] of less than 100 nM, an IC50 [2] of less than 100 nM and an IC50 [3] of less than 100 nM. It also gave an IC50 [4] of less than 100 nM.

With `COCc1nc(C)c(Br)c(O)c1C(=O)Nc1ccc(Oc2ccnc3cc(OC)c(OC)nc23)c(F)c1` [Compound 535, 5-bromo-N-[4-[(6,7-dimethoxy-1,5-naphthyridin-4-yl)oxy]-3-fluorophenyl]-4-hydroxy-2-(methoxymethyl)-6-methylpyridine-3-carboxamide] the IC50 [1] was greater than 300 nM, the IC50 [2] was less than 100 nM and the IC50 [3] was less than 100 nM. For the same molecule, the IC50 [4] was less than 100 nM.

For `COc1cc2nccc(Oc3ccc(NC(=O)c4n[nH]c(C)cc4=O)cc3F)c2nc1OC` [Compound 536, N-[4-[(6,7-dimethoxy-1,5-naphthyridin-4-yl)oxy]-3-fluorophenyl]-6-methyl-4-oxo-1H-pyridazine-3-carboxamide], the IC50 [1] was greater than 300 nM, the IC50 [2] was greater than 300 nM and the IC50 [3] was greater than 300 nM. For the same molecule, the IC50 [4] was greater than 300 nM.

`COCc1cnn(-c2ccc(F)cc2)c(=O)c1C(=O)Nc1ccc(Oc2ccnc3cc(OC)c(OC)nc23)cc1` [Compound 537, N-[4-[(6,7-dimethoxy-1,5-naphthyridin-4-yl)oxy]phenyl]-2-(4-fluorophenyl)-5-(methoxymethyl)-3-oxopyridazine-4-carboxamide] was tested, and the IC50 [1] was less than 100 nM, the IC50 [2] was less than 100 nM and the IC50 [3] was less than 100 nM. For the same molecule, the IC50 [4] was less than 100 nM.

`COc1ccc2nccc(Oc3ccc(NC(=O)c4nnc(C)c(-c5ccc(F)cc5)c4OC)cc3F)c2n1` [Compound 538, N-[3-fluoro-4-[(6-methoxy-1,5-naphthyridin-4-yl)oxy]phenyl]-5-(4-fluorophenyl)-4-methoxy-6-methylpyridazine-3-carboxamide] showed an IC50 [1] of less than 100 nM, an IC50 [2] of less than 100 nM and an IC50 [3] of less than 100 nM. It also gave an IC50 [4] of less than 100 nM.

For `COc1cc2nccc(Oc3ccc(NC(=O)c4cn5c(c(-c6ccc(F)cc6)c4=O)COCC5)cc3F)c2nc1OC` [Compound 564, N-[4-[(6,7-Dimethoxy-1,5-naphthyridin-4-yl)oxy]-3-fluorophenyl]-9-(4-fluorophenyl)-8-oxo-3,4-dihydro-1H-pyrido[2,1-c][1,4]oxazine-7-carboxamide], the IC50 [1] was 100 to 300 nM, the IC50 [2] was less than 100 nM and the IC50 [3] was less than 100 nM. The IC50 [4] was less than 100 nM.

With `CNC(=O)Cc1nc2c(Oc3ccc(NC(=O)c4cnc(C)c(-c5ccc(F)cc5)c4O)cc3F)ccnc2cc1OC` [Compound 570, N-[3-Fluoro-4-[[7-methoxy-6-[2-(methylamino)-2-oxoethyl]-1,5-naphthyridin-4-yl]oxy]phenyl]-5-(4-fluorophenyl)-4-hydroxy-6-methylpyridine-3-carboxamide] the IC50 [1] was less than 100 nM, the IC50 [2] was less than 100 nM and the IC50 [3] was less than 100 nM. For the same molecule, the IC50 [4] was less than 100 nM.

`COc1cc2nccc(Oc3ccc(NC(=O)c4nnc(C)c(-c5ccc(F)cc5)c4OC)cc3F)c2cc1OC` [Compound 571, N-[4-(6,7-Dimethoxyquinolin-4-yl)oxy-3-fluorophenyl]-5-(4-fluorophenyl)-4-methoxy-6-methylpyridazine-3-carboxamide] showed an IC50 [1] of less than 100 nM, an IC50 [2] of less than 100 nM and an IC50 [3] of less than 100 nM. For the same molecule, the IC50 [4] was less than 100 nM.

Molecule `CCOc1c(C(=O)Nc2ccc(Oc3ccnc4cc(OC)c(OC)cc34)c(F)c2)nnc(C)c1-c1ccc(F)cc1` [Compound 572, N-[4-(6,7-Dimethoxyquinolin-4-yl)oxy-3-fluorophenyl]-4-ethoxy-5-(4-fluorophenyl)-6-methylpyridazine-3-carboxamide] has an IC50 [1] of less than 100 nM, an IC50 [2] of less than 100 nM and an IC50 [3] of less than 100 nM. For the same molecule, the IC50 [4] was less than 100 nM.

Molecule `CCn1nc(C(=O)Nc2ccc(Oc3ccnc4cc(OC)c(OC)cc34)c(F)c2)c(=O)c(-c2ccc(F)cc2)c1C` [Compound 573, N-[4-(6,7-Dimethoxyquinolin-4-yl)oxy-3-fluorophenyl]-1-ethyl-5-(4-fluorophenyl)-6-methyl-4-oxopyridazine-3-carboxamide] has an IC50 [1] of less than 100 nM, an IC50 [2] of less than 100 nM and an IC50 [3] of less than 100 nM. It also gave an IC50 [4] of less than 100 nM.

Work on `COc1cc2nccc(Oc3ccc(NC(=O)c4nnc(C)c(-c5ccc(F)cc5)c4OC(C)C)cc3F)c2cc1OC` [Compound 574, N-[4-(6,7-Dimethoxyquinolin-4-yl)oxy-3-fluorophenyl]-5-(4-fluorophenyl)-6-methyl-4-propan-2-yloxypyridazine-3-carboxamide] yielded an IC50 [1] of less than 100 nM, an IC50 [2] of less than 100 nM and an IC50 [3] of less than 100 nM. It also gave an IC50 [4] of less than 100 nM.

With `COc1cc2nccc(Oc3ccc(NC(=O)c4nn(C(C)C)c(C)c(-c5ccc(F)cc5)c4=O)cc3F)c2cc1OC` [Compound 575, N-[4-(6,7-Dimethoxyquinolin-4-yl)oxy-3-fluorophenyl]-5-(4-fluorophenyl)-6-methyl-4-oxo-1-propan-2-ylpyridazine-3-carboxamide] the IC50 [1] was less than 100 nM, the IC50 [2] was less than 100 nM and the IC50 [3] was less than 100 nM. For the same molecule, the IC50 [4] was less than 100 nM.

With `COc1cc2nccc(Oc3ccc(NC(=O)c4cc(-c5ccc(F)cc5)c(C)nn4)cc3F)c2nc1OC` [Compound 601, N-[4-[(6,7-Dimethoxy-1,5-naphthyridin-4-yl)oxy]-3-fluorophenyl]-5-(4-fluorophenyl)-6-methylpyridazine-3-carboxamide] the IC50 [1] was greater than 300 nM, the IC50 [2] was less than 100 nM and the IC50 [3] was greater than 300 nM. It also gave an IC50 [4] greater than 300 nM.

For `COc1cc2ncnc(Oc3ccc(NC(=O)c4ccc(C)n(-c5ccc(F)cc5)c4=O)cc3F)c2nc1OC` [Compound 635], the IC50 [1] was less than 100 nM, the IC50 [2] was less than 100 nM and the IC50 [3] was less than 100 nM. The IC50 [4] was less than 100 nM.

`COCCOc1cc2ncnc(Oc3ccc(NC(=O)c4ccc(C)n(-c5ccc(F)cc5)c4=O)cc3F)c2nc1OC` [Compound 638, N-[3-fluoro-4-[6-methoxy-7-(2-methoxyethoxy)pyrido[3,2-d]pyrimidin-4-yl]oxyphenyl]-1-(4-fluorophenyl)-6-methyl-2-oxopyridine-3-carboxamide] gave an IC50 [1] of less than 100 nM, an IC50 [2] of less than 100 nM and an IC50 [3] of less than 100 nM. It also gave an IC50 [4] of less than 100 nM.

Reference: US12371428B2 (Exelixis, Inc., priority 2019, dated 2025)
